Counter-ions that a name gives are not always drawn.

One data set can be described thus: pKa of acidic and basic substances present in the compositions. Format: physicochemical. As to conditions: assumed to be equal to that of an analogue (footnote *1).
Regarding `Cc1ccc(C(=O)C(C)CN2CCCCC2)cc1` (centres unmarked) [Tolperisone, reference compound], the pKa was ~8.9.

Consider `CCCCCCCCN` [n-Octylamine], for which the pKa was found to be 10.7.

Test in a further data set: not given
As to conditions: carboxylic acids and organic amine compounds used for the ionic liquids; cited from earlier work.
Consider `CC(C)CCCCCCCCCCCCCCC(=O)O` [Isostearic acid], for which the pKa entry is reported as “(pKa ≈ 4.9)”.

With `CCCCCCCCCCCC(=O)O` [Lauric acid], the pKa entry is given as “(pKa ≈ 4.9)”.

The same data set, now with this note: cited from earlier work.
With `CC(C)CCCCCCCCCCCCCCC(=O)O` [Isostearic acid], the pKa result was “approximately 4.9”.

As for `CC(=O)CCC(=O)O` [Levulinic acid], the pKa was 4.5.

For `OCCN1CCCC1` [N-hydroxyethyl-pyrrolidine, N-hydroxyethylpyrrolidine], the pKa is 10.32.

`CCCCCCCCCCCCCC(=O)O` [Myristic acid]: the pKa entry is recorded as “ca.4.9”.

`NC1CCCCC1` [Cyclohexylamine]: the pKa is reported as 10.63.

As for `CC(C(=O)O)c1ccc(-c2ccccc2)c(F)c1` (centres unmarked) [Flurbiprofen, reference compound], the pKa is on record as 3.78.

In the case of `CCc1ccc(C(=O)C(C)CN2CCCCC2)cc1` (centres unmarked) [Eperisone, reference compound], the pKa is given as 8.91.

As for `CC(C(=O)O)c1ccc(CC2CCCC2=O)cc1` (centres unmarked) [Loxoprofen, reference compound], the pKa is 4.20.

For the molecule `CCCCCCCC/C=C\CCCCCCCC(=O)O` [oleic acid], the pKa result is “approximately 4.9”.

`CCCCCCN` [n-Hexylamine]: the pKa is listed as 10.85.

As for `CCc1cccc2c3c([nH]c12)C(CC)(CC(=O)O)OCC3` (centres unmarked) [Etodolac, reference compound], the pKa is given as 4.5.

The nature of the next data set: Transdermal absorbability evaluation test using Franz-cells (rat skin permeation). The settings on record: indomethacin; cumulative amount permeated 6 hours after start of test; rat skin, Franz-cells.
As for `COc1ccc2c(c1)c(CC(=O)O)c(C)n2C(=O)c1ccc(Cl)cc1` [Indomethacin, reference compound], the Transdermal absorbability entry is “approximately 3 μg/cm^2”.

The same data set, now with this note: tramadol salt liquid preparation free from ionic liquid; percentage of amount added onto the rat skin.
For the molecule `CCCCC(CC)C(=O)O.COc1cccc(C2(O)CCCCC2CN(C)C)c1` (centres unmarked) [2-ethylhexanoate, 2-ethylhexanoate of Tramadol], the “Rat skin permeability after 6 hours” value came out at 12.1%.

Take Lactate: the “Rat skin permeability after 6 hours” value was 0.2%.

As for Butyrate, the “Rat skin permeability after 6 hours” value turned out to be 23.8%.

For the molecule `COc1cccc(C2(O)CCCCC2CN(C)C)c1` (centres unmarked) [Hydrochloride, tramadol hydrochloride, reference compound], the “Rat skin permeability after 6 hours” value is recorded as 4.5%.

By pKa is commonly meant the negative logarithm of the acid dissociation constant.

(Values after patent US8623387B2, “External preparation composition comprising fatty acid-based ionic liquid as active ingredient” (Medrx Co., Ltd., priority 2007, dated 2014).)
